{"source": "BindingDB's records for doi:10.1021/jm9807003", "about": "(National Institute of Diabetes, 1999)", "experiment": "Ability to inhibit GTP-gamma-S binding to Opioid receptor delta 1 of guinea pig caudate"}
{"compound": "COc1ccc2c(c1O)[C@]13CCN(CC4CC4)[C@H](C2)[C@@H]1Cc1c([nH]c2ccccc12)C3", "note": "[17-cyclopropylmethyl-6,7-didehydro-4-hydroxy-3-methoxy-6,7:2',3'-indolmorphinan]", "values": [{"measurement": "Ki", "result": 22, "unit": "nM"}]}
